The values that follow come from patent US6046219A, “Method for the treatment of conditions mediated by collagen formation together with cell proliferation by application of inhibitors of protein hydroxylation” (Cornell Research Foundation, Inc., priority 1997, dated 2000).

Holding throughout (assay type): cell-based
In experiment [1] the test system is prolyl 4-hydroxylase in human lung fibroblast line MRC-5. As to the kind of experiment: Assay of cellular human prolyl 4-hydroxylase / collagen secretion in MRC-5 lung fibroblasts. The note with it: human lung fibroblasts MRC-5, FIG. 5a-f. Here is the method: FIGS. 5a-f show, as percent of uninhibited controls, the suppressive effect of six hydroxypyridone compounds on prolyl 4-hydroxylation in a human lung fibroblast line ("MRC-5"). Those cells were pretreated with inhibitor for 30 minutes prior to routine metabolic labeling with tritiated proline ("Pro") for 24 hours, followed by standard hydrolysis and separation of amino acids from both supernatant and cells for determination of proline conversion into hydroxyproline ("Hyp").
The established human lung fibroblast line MRC-5 was used, maintained, and propagated by routine cell culture techniques.
SMC or MRC-5 cells (3-5×10^6 cells/35 mm well) were labeled in the presence or absence of hydroxypyridones, with ^3 H-proline (Pro) (4 μCi/ml) for 24 hours in proline- and serum-free Dulbecco […] ("DMEM") containing 50 μg/ml sodium ascorbate and 20 μg/ml β-aminopropionitrile. […] The hydrolysate was derivatized with phenylisothiocyanate and analyzed for ^3 H-proline ("Pro") and ^3 H-hydroxyproline ("Hyp") by HPLC on a reverse-phase C18 column, using an automated HPLC system (Hewlett-Packard, Wilmington, Del.) with an in-line scintillation counter (Inus Systems, Inc., Tampa, Fla.). The position of proline and hydroxyproline was determined from tritiated standards.

Experiment [2] has as its system plasminogen activator inhibitor-1 (PAI-1). Description: Plasminogen activator inhibitor assay, SMC supernatants. The note with it: human SMC, FIG. 6. The procedure:
Type III collagen biosynthesis (FIG. 6a) was assessed by a commercial radioimmunoassay using a monoclonal antibody to the N-terminal propeptide of type III procollagen. Plasminogen activator inhibitor-1 ("PAI-1") activity was measured by a standard enzymatic method. Type I collagen biosynthesis (FIG. 6b) was assessed by routine Western blot using a monoclonal antibody to the C-terminal propeptide of type I procollagen.
Supernatants of human SMC incubated with the hydroxypyridone L-mimosine under serum-free conditions (to avoid plasma-derived inhibitors) were tested for their ability to inhibit a standard amount of urokinase-type plasminogen activator (uPA) in the presence of plasminogen and the fluorometric peptide plasmin substrate d-Val-Leu-Lys-aminomethylcoumarin (Enzyme Systems, Livermore, Calif.). Inhibition of plasmin generation was compared to a standard curve of human PAI-1 (American Diagnostica, Greenwich, Conn.) to yield PAI-1 activity.

Experiment [3] has as its target T1, cellular human deoxyhypusyl hydroxylase (Homo sapiens, UniProt Q9BU89).
T1 construct: endogenous in cells; host or cells: cultured human cells (smooth muscle cells, B-lymphocytes)
T1 sequence (Q9BU89 1-302): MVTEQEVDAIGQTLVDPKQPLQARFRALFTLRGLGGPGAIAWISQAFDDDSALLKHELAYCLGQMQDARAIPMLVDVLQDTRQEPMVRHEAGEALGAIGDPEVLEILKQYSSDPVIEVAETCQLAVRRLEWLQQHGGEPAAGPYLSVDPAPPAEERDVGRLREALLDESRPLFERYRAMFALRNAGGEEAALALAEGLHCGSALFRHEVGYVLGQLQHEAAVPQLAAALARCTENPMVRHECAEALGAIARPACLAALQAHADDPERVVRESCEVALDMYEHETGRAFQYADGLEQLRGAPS
As to the kind of experiment: Cellular human deoxyhypusyl hydroxylase (DOHH assay, 3H-spermidine labeling). From the text: The inhibitory action of the substances according to the invention, for example on collagen secretion or cell proliferation, can be tested in direct assays of the enzymes mediating the pivotal protein hydroxylations for these biological processes, such as prolyl 4-hydroxylase and deoxyhypusyl hydroxylase. This entails the enzymatic hydroxylation of the appropriate protein precursor, either by the cellular or the purified enzyme, in the presence or absence of compounds of Formulae (I) or (II), with concomitant determination of co-substrate utilization by these enzymes or subsequent isolation of the hydroxylated amino acid and its unhydroxylated precursor. In this manner, the inhibitory potency of any given compound can be measured in the cell-free system, in cell culture, or in tissue, and is expressed as the inhibitory dose that gives a 50% reduction of the enzyme-mediated reaction (ID50). Enzyme is tested in analogy to the method of A. Abbruzzese, H. M. Hanauske-Abel, et al., Biochem. Biophys. Acta, 1077, 159-166 (1991) and of K. Majamaa, H. M. Hanauske-Abel, et al., Eur. J. Biochem. 138, 239-245 (1984), which are hereby incorporated by reference. Table III lists the ID50 values of some of the compounds according to the invention, using purified human prolyl 4-hydroxylase and cellular human deoxyhypusyl hydroxylase as representative protein hydroxylases.
The inhibiting effect of hydroxypyridones on the eIF-5A-hydroxylating enzyme was studied in cultured human cells (i.e. smooth muscle cells, B-lymphocytes).
The cellular conversion of the precursor deoxyhypusine to the hydroxylated hypusine in cells was examined, after preincubation with the inhibitor for 60 minutes, by labeling the human cells with ^3 H-spermidine (5 μCi/ml) in 25 cm^2 flasks (1×10^6 cells/flask) for 24 hours prior to cell lysis, precipitation with 10% TCA containing 1 mM each of putrescine, spermidine, and spermine, and hydrolysis in 6 N HCl at 110° C. for 16 hours. The hydrolysate was analyzed for labeled amino acids on an amino acid analyzer by published methods (Park et al., J. Biol. Chem., 257:7217-7222 (1982), which is hereby incorporated by reference). The retention of purified hypusine and deoxyhypusine was determined from standards.

Molecules are shown by their SMILES. “Also recorded” adds a separate entry of the source.

Consider `N[C@@H](Cn1ccc(=O)c(O)c1)C(=O)O` [L-Mimosine], for which the “secretion of hydroxyproline-containing proteins (collagen secretion)” value in experiment [1] is given as “selectively inhibited”. Also, the “secretion of plasminogen activator inhibitor-1 (PAI-1)” value in experiment [2] was “not affected; also recorded: not on release of plasminogen activator inhibitor-1”. Moreover, the “inhibition of deoxyhypusyl hydroxylase” value in experiment [3] (FIG. 3, assayed in vitro) is “directly inhibit”. In experiment [3] (cellular human enzyme, inhibitory dose that gives 50% reduction of the enzyme-mediated reaction, unit assumed), the Deoxyhypusyl hydroxylase ID50 (cellular) amounted to 65 µM.
